Molecules are shown by their SMILES.

In one assay the target is T1, E. coli DdlB enzyme (D-alanine:D-alanine ligase) (Escherichia coli, UniProt P07862).
T1 construct: made in house; host or cells: E. coli
Description: biochemical. The conditions noted are these: read-out: DdlB RA.
For `[C-]#[N+]CS(=O)(=O)c1ccc(C)cc1` [FLD035], the remaining activity at 2500 µM worked out at 100%.
As for `Nc1ccc(F)c(Cl)c1` [FLD050], the remaining activity at 2500 µM amounted to 98%.
Regarding `O=C1CC[C@H](C(=O)O)O1` [FLD057], the remaining activity at 2500 µM worked out at 100%.
Same read-out and setting: next, `Nc1ncccc1C(=O)O` [FLD088]: 98%.
Still for that read-out and setting: in the case of `Nc1cccc(C(F)(F)F)n1` [FLD091] it was 100%; in that of `Oc1ccccc1` [FLD105], 95%.
Consider `N[C@H](c1ccccc1)[C@@H](N)c1ccccc1` [FLD112], for which the remaining activity at 2500 µM was 100%.
Same read-out and setting: in the case of `N#Cc1ccc(CN)cc1` [FLD152] it was 97%.

The same assay, now with this note: residual activity of DdlB; fragment library screening; tested concentration 2.5 mM; read-out: DdlB RA.
For `O=C(O)c1ccc[nH]1` [FLD034], the remaining activity at 2500 µM was 100%.
Same read-out and setting: in the case of `Cc1cc(N)on1` [FLD036] it was 97%; in that of `Cc1cc(Cl)ccc1O` [FLD037], 85%; in that of `O=C(O)C1Cc2ccccc2N1` (centres unmarked) [FLD038], 81%.
Still for that read-out and setting: next, `O=C(O)[C@H](O)Cc1ccccc1` [FLD039]: 93%; `c1cnc2c(c1)ccc1cccnc12` [FLD040]: 74%; `O=C1CNC(=O)N1` [FLD041]: 95%.
As for `Nc1cc(O)[nH]n1` [FLD042], the remaining activity at 2500 µM worked out at 100%.
On the same count and under the same terms, next, `NC(=O)c1ccccc1N` [FLD043]: 98%; `NOCc1ccccc1` [FLD044]: 94%.
On the same count and under the same terms, in the case of `Oc1ccc(OCc2ccccc2)cc1` [FLD045] it was 100%.
Turning to `Cc1cc(Cl)nc(N)n1` [FLD046], the remaining activity at 2500 µM was found to be 79%.
Still for that read-out and setting: next, `Nc1cc(F)c(F)cc1C(=O)O` [FLD047]: 92%.
For `COc1cc(N)c(C#N)cc1OC` [FLD048], the remaining activity at 2500 µM was 100%.
For the compound `COc1nc(Cl)nc(OC)n1` [FLD049], the remaining activity at 2500 µM worked out at 95%.
On the same count and under the same terms, next, `Cc1ccc(C#N)c(O)n1` [FLD051]: 97%; `Nc1ccc(Cl)nn1` [FLD052]: 96%.
As for `Nc1cc[nH]c(=O)n1` [FLD053], the remaining activity at 2500 µM stood at 100%.
The same measure, in the same setting: next, `Nc1cccc2ncccc12` [FLD054]: 94%.
In the case of `O=C(O)Cc1ccncc1` [FLD055], the remaining activity at 2500 µM was 96%.
As for `O=C(O)c1ccc(CN2CCCCC2)cc1` [FLD056], the remaining activity at 2500 µM stood at 100%.
The same measure, in the same setting: in the case of `O=C1CNCCN1` [FLD058] it was 100%; in that of `N=C1NC(=O)CS1` [FLD059], 99%; in that of `O=C(O)c1ccccc1Br` [FLD060], 100%.
On the same count and under the same terms, in the case of `Nc1cccc([N+](=O)[O-])c1` [FLD061] it was 98%.
Same read-out and setting: in the case of `O=C(O)c1ccc(F)cc1` [FLD062] it was 98%.
As to `CC(=O)Nc1cccc(C)c1` [FLD063], the remaining activity at 2500 µM was determined as 100%.
The same measure, in the same setting: in the case of `CCOc1ccc(NC(C)=O)cc1` [FLD064] it was 98%.
`OCc1cccc(Oc2ccccc2)c1` [FLD065]: the remaining activity at 2500 µM came out at 100%.
Still for that read-out and setting: next, `O=C(O)C(c1ccccc1)c1ccccc1` [FLD066]: 100%.
On the same count and under the same terms, in the case of `NS(=O)(=O)c1ccc(Cl)s1` [FLD067] it was 100%; in that of `O=C(O)c1ccc2cc(O)ccc2c1` [FLD068], 94%.
Still for that read-out and setting: in the case of `Nc1ccc(-c2ccc(N)cc2)cc1` [FLD069] it was 70%; in that of `CN(C)c1ccc(C(=O)O)cc1` [FLD070], 93%.
In the case of `O=C(O)c1cccc(Cl)c1` [FLD071], the remaining activity at 2500 µM is 100%.
On the same count and under the same terms, in the case of `Cc1ccc(O)c(C(=O)O)c1` [FLD072] it was 99%; in that of `C/C=C/c1ccc(OC)cc1` [FLD073], 100%; in that of `Nc1ccc2ccccc2c1` [FLD074], 89%.
Still for that read-out and setting: in the case of `Cc1ccc(N)c(N)c1` [FLD075] it was 90%.
As to `Oc1cccc(-c2ccccc2)c1` [FLD076], the remaining activity at 2500 µM amounted to 98%.
On the same count and under the same terms, in the case of `OC1CCCc2ccccc21` (centres unmarked) [FLD077] it was 99%.
The same measure, in the same setting: next, `Nc1csc2nccnc12` [FLD078]: 100%; `S=c1[nH]ncs1` [FLD079]: 81%; `Nc1ccc(Cl)cc1` [FLD080]: 100%.
Regarding `Cc1cc(=O)n(-c2ccccc2)n1C` [FLD081], the remaining activity at 2500 µM worked out at 100%.
The same measure, in the same setting: in the case of `O=C(O)Cc1cccnc1` [FLD083] it was 98%; in that of `Nc1ncncn1` [FLD084], 98%; in that of `Nc1cccc(O)c1` [FLD085], 100%.
Consider `Cc1cccc(N)c1C#N` [FLD086], for which the remaining activity at 2500 µM was 100%.
As to `Cc1ccnc(N)c1` [FLD087], the remaining activity at 2500 µM stood at 100%.
On the same count and under the same terms, in the case of `COc1cnc(N)nc1` [FLD089] it was 100%; in that of `Cc1cc(N)ccn1` [FLD090], 100%.
The same measure, in the same setting: in the case of `O=[N+]([O-])c1ccc(O)c(Cl)c1` [FLD092] it was 97%; in that of `O=C(c1ccc(O)cc1)c1ccc(O)cc1` [FLD093], 97%; in that of `Cc1cc(C(=O)O)n(C)n1` [FLD094], 96%.
Still for that read-out and setting: in the case of `Clc1ccc(Cl)nn1` [FLD095] it was 98%; in that of `O=C(O)c1ccco1` [FLD096], 95%.
For the compound `O=C(O)c1cc(O)ccc1Cl` [FLD097], the remaining activity at 2500 µM is 94%.
For the compound `CCOC(=O)Nc1ccccc1` [FLD098], the remaining activity at 2500 µM is 96%.
Same read-out and setting: in the case of `CCOc1ccc(O)cc1` [FLD099] it was 100%; in that of `Cc1nc(C(=O)O)cs1` [FLD100], 93%.
Same read-out and setting: in the case of `CC(=O)NC1CCC(=O)CC1` [FLD101] it was 98%; in that of `CNC(C)C(O)c1ccccc1` (centres unmarked) [FLD102], 97%; in that of `Nc1ncn[nH]1` [FLD103], 95%.
Same read-out and setting: next, `CCc1occc(=O)c1O` [FLD104]: 86%.
Regarding `CCOC(=O)c1[nH]cnc1C` [FLD106], the remaining activity at 2500 µM is 100%.
Same read-out and setting: next, `NC(=S)Nc1ccc(F)cc1` [FLD107]: 95%.
Regarding `O=C(O)c1cc2ccccc2oc1=O` [FLD109], the remaining activity at 2500 µM came out at 96%.
`NS(=O)(=O)c1ccccc1` [FLD110]: the remaining activity at 2500 µM amounted to 110%.
In the case of `Nc1cccc(N)c1` [FLD111], the remaining activity at 2500 µM amounted to 92%.
Still for that read-out and setting: in the case of `N#Cc1ccccc1Br` [FLD114] it was 99%; in that of `Cc1ccc(C)c(S(=O)(=O)O)c1` [FLD115], 94%.
The same measure, in the same setting: next, `N#CCc1ccc(C(F)(F)F)cc1` [FLD116]: 94%.
Same read-out and setting: next, `Clc1cc(Cl)ncn1` [FLD117]: 97%; `Nc1ccc(Br)cc1N` [FLD118]: 90%; `Cc1cc(C)nc(NC#N)n1` [FLD119]: 100%.
Regarding `COc1cc(N)ccn1` [FLD120], the remaining activity at 2500 µM turned out to be 97%.
Same read-out and setting: in the case of `OCc1ccc(Br)cc1` [FLD122] it was 96%; in that of `N#Cc1cncc(Br)c1` [FLD123], 97%; in that of `N#Cc1ccc(N2CCCNCC2)nc1` [FLD124], 62%.
On the same count and under the same terms, next, `Nc1ncccc1O` [FLD125]: 97%.
On the same count and under the same terms, next, `Nc1nnc(C2CC2)s1` [FLD126]: 80%; `O=C1N[C@@H](c2ccccc2)CO1` [FLD127]: 99%.
With `CSc1nc(N)n[nH]1` [FLD128], the remaining activity at 2500 µM was 97%.
Take `CC(=O)Nc1ccccc1C(=O)O` [FLD129]: the remaining activity at 2500 µM amounted to 98%.
As to `Cc1cc(C)[nH]n1` [FLD130], the remaining activity at 2500 µM is 100%.
With `Nc1cccc(CC(=O)O)c1` [FLD131], the remaining activity at 2500 µM was 97%.
The same measure, in the same setting: in the case of `Nc1c(Br)cc(Br)cc1C(=O)O` [FLD132] it was 100%; in that of `Nc1ncccn1` [FLD133], 102%.
For `O=C(O)c1cccnc1F` [FLD134], the remaining activity at 2500 µM was 98%.
On the same count and under the same terms, in the case of `COc1c(C)[nH]ccc1=O` [FLD135] it was 96%.
Take `N#Cc1ccsc1N` [FLD136]: the remaining activity at 2500 µM was determined as 100%.
On the same count and under the same terms, next, `N#Cc1c(N)cccc1F` [FLD137]: 98%.
Same read-out and setting: next, `Nn1cnnc1` [FLD138]: 96%; `CC(=O)c1ccc[nH]1` [FLD139]: 95%.
Same read-out and setting: next, `CNc1nnc(C(F)(F)F)s1` [FLD140]: 94%.
In the case of `O=C(O)CCc1cccnc1` [FLD141], the remaining activity at 2500 µM is 95%.
Still for that read-out and setting: in the case of `O=[N+]([O-])c1ccc(Cl)nc1` [FLD142] it was 92%.
Turning to `COC(=O)c1cscc1N` [FLD143], the remaining activity at 2500 µM came out at 92%.
With `Nc1ncnc2[nH]ccc12` [FLD144], the remaining activity at 2500 µM was found to be 94%.
Same read-out and setting: in the case of `Nc1ccc(Br)cn1` [FLD145] it was 92%.
Same read-out and setting: in the case of `O=C(O)Cc1cccs1` [FLD146] it was 95%.
Consider `Nc1ccc2nsnc2c1` [FLD147], for which the remaining activity at 2500 µM came to 100%.
Take `O=C(O)Cc1ccc(F)c(C(F)(F)F)c1` [FLD148]: the remaining activity at 2500 µM was 100%.
Still for that read-out and setting: next, `N#Cc1ccc(CCO)cc1` [FLD149]: 100%; `Cc1nnc(N)s1` [FLD150]: 95%; `O=C(O)c1ccncc1F` [FLD151]: 98%.
For `Cc1cc(N)[nH]n1` [FLD153], the remaining activity at 2500 µM was found to be 98%.

These data come from PMC9718554, “Discovery of a fragment hit compound targeting D-Ala:D-Ala ligase of bacterial peptidoglycan biosynthesis” (Journal of Enzyme Inhibition and Medicinal Chemistry, 2022).
